Values of other authors in patent US20110230549A1, “PHARMACEUTICAL COMPOSITIONS FOR THE TREATMENT OF PAIN” (GW Pharma Limited, priority 2005, published 2011).

Legend:
[1] = test system: PBQ-induced writhing in mice; details: compared among cannabinoids and pre-cursors
[2] = test system: patient with familial Mediterranean fever; details: 50 mg

Row | SMILES | Effectiveness at reducing analgesia and inflammation [1] | Amount of analgesia that the patient required [2] | Inhibition of PBQ-induced writhing in mice ([1]; oral administration)
1 | CCCCCc1cc(O)c2c(c1)OC(C)(C)c1ccc(C)cc1-2 [CBN] | least effective | – | –
2 | CCCCCc1cc(O)c2c(c1)OC(C)(C)[C@@H]1CCC(C)=C[C@@H]21 [THC, delta-9-tetrahydrocannabinol] | least effective | highly significant reduction | –
3 | C=C(C)[C@@H]1CCC(C)=C[C@H]1c1c(O)cc(CCCCC)cc1O [CBD, cannabidiol] | – | – | most effective
